In PubChem BioAssay (NCI):
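Values below derive from 48-hour exposures of cells grown in 96-well plates, with endpoints linearly interpolated between the two concentrations bracketing the appropriate inhibition level. The concentration for full growth arrest is given as TGI.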

Tests used:
Assay in all cases: NCI anticancer screen, dose series, 48 h
[1] = system: NCI/ADR-RES ovarian
[2] = system: NCI-H23 lung
[3] = system: SF-539 CNS
[4] = system: OVCAR-3 ovarian
[5] = system: UACC-257 melanoma
[6] = system: CCRF-CEM leukemia
[7] = system: SF-268 CNS
[8] = system: NCI-H522 lung
[9] = system: MALME-3M melanoma
[10] = system: HOP-92 NSCLC
[11] = system: RXF 393 renal
[12] = system: OVCAR-8 ovarian
[13] = system: SK-MEL-28 melanoma
[14] = system: CAKI-1 renal
[15] = system: A498 renal
[16] = system: SNB-75 CNS
[17] = system: MCF7 breast
[18] = system: COLO 205 colon
[19] = system: A549 NSCLC
[20] = system: SR leukemia

Cn1c(=O)c2c(nc3sc4c(n32)C(=O)c2c(O)ccc(O)c2C4=O)n(C)c1=O
TGI [1]: 17.1 µM | TGI [2]: 21.2 µM | TGI [3]: 15.6 µM | TGI [4]: > 20.9 µM | TGI [5]: 28.5 µM | TGI [6]: 1.9 µM | TGI [7]: 24.5 µM | TGI [8]: 0.369 µM | TGI [9]: 3.09 µM | TGI [10]: 7.93 µM | TGI [11]: 5.59 µM | TGI [12]: 11 µM | TGI [13]: 21.3 µM | TGI [14]: 18.6 µM | TGI [15]: 57.4 µM | TGI [16]: 16.1 µM | TGI [17]: 3.41 µM | TGI [18]: 12.1 µM | TGI [19]: 59.6 µM | TGI [20]: 3.23 µM

NC(=O)c1ncn(C2OC(CO)C(O)C2O)c1NC=O (stereo not given)
TGI [1]: > 100 µM | TGI [2]: > 100 µM | TGI [3]: > 100 µM | TGI [4]: > 100 µM | TGI [5]: > 100 µM | TGI [6]: > 100 µM | TGI [7]: > 100 µM | TGI [8]: > 100 µM | TGI [9]: > 100 µM | TGI [10]: > 100 µM | TGI [11]: > 100 µM | TGI [12]: > 100 µM | TGI [13]: > 100 µM | TGI [14]: > 100 µM | TGI [15]: > 100 µM | TGI [16]: > 100 µM | TGI [17]: > 100 µM | TGI [18]: > 100 µM | TGI [19]: > 100 µM | TGI [20]: > 100 µM

[N-]=[N+]=Nc1c(Cl)c(Cl)nc2ccccc12
TGI [1]: > 100 µM | TGI [2]: > 100 µM | TGI [3]: > 100 µM | TGI [4]: > 100 µM | TGI [5]: > 100 µM | TGI [6]: > 100 µM | TGI [7]: > 100 µM | TGI [8]: > 100 µM | TGI [9]: > 100 µM | TGI [10]: > 100 µM | TGI [11]: > 100 µM | TGI [12]: > 100 µM | TGI [13]: > 100 µM | TGI [14]: 57.8 µM | TGI [15]: > 100 µM | TGI [16]: > 100 µM | TGI [17]: > 100 µM | TGI [18]: > 100 µM | TGI [19]: > 100 µM | TGI [20]: > 100 µM

OC[P+](CO)(CO)C12CC3CC(CC(C3)C1)C2
TGI [1]: > 100 µM | TGI [2]: > 100 µM | TGI [3]: > 100 µM | TGI [4]: > 100 µM | TGI [5]: > 100 µM | TGI [6]: 62.2 µM | TGI [7]: > 100 µM | TGI [8]: > 100 µM | TGI [9]: > 100 µM | TGI [10]: > 100 µM | TGI [11]: > 100 µM | TGI [12]: > 100 µM | TGI [13]: > 100 µM | TGI [14]: > 100 µM | TGI [15]: > 100 µM | TGI [16]: > 100 µM | TGI [17]: > 100 µM | TGI [18]: > 100 µM | TGI [19]: > 100 µM | TGI [20]: > 82 µM

CCOC(=O)C1(C(=O)OCC)C[C@@H](C)[C@@H](O)C1
TGI [1]: > 100 µM | TGI [2]: > 100 µM | TGI [3]: > 100 µM | TGI [4]: > 100 µM | TGI [5]: > 100 µM | TGI [6]: > 100 µM | TGI [7]: > 100 µM | TGI [8]: > 100 µM | TGI [9]: > 100 µM | TGI [10]: > 100 µM | TGI [11]: > 100 µM | TGI [12]: > 100 µM | TGI [13]: > 100 µM | TGI [14]: > 100 µM | TGI [15]: > 100 µM | TGI [16]: > 100 µM | TGI [17]: > 100 µM | TGI [18]: > 100 µM | TGI [19]: > 100 µM | TGI [20]: > 100 µM

O=C(NNC1=NCCCCN1)Nc1ccc(Cl)cc1
TGI [1]: > 100 µM | TGI [2]: > 100 µM | TGI [3]: > 100 µM | TGI [4]: > 100 µM | TGI [5]: > 100 µM | TGI [6]: > 100 µM | TGI [7]: > 100 µM | TGI [8]: > 100 µM | TGI [9]: > 100 µM | TGI [10]: > 100 µM | TGI [11]: > 100 µM | TGI [12]: > 100 µM | TGI [13]: > 100 µM | TGI [14]: > 100 µM | TGI [15]: > 100 µM | TGI [16]: > 100 µM | TGI [17]: > 100 µM | TGI [18]: > 100 µM | TGI [19]: > 100 µM | TGI [20]: > 100 µM

COC(=O)c1ccccc1CC(Cc1ccc2c(c1)CCC2)C(=O)OC (stereo not given)
TGI [1]: > 100 µM | TGI [2]: > 100 µM | TGI [3]: > 100 µM | TGI [4]: > 100 µM | TGI [5]: > 100 µM | TGI [6]: > 100 µM | TGI [7]: > 100 µM | TGI [8]: > 100 µM | TGI [9]: > 100 µM | TGI [10]: > 100 µM | TGI [11]: > 100 µM | TGI [12]: > 100 µM | TGI [13]: > 100 µM | TGI [14]: > 100 µM | TGI [15]: > 100 µM | TGI [16]: > 100 µM | TGI [17]: > 100 µM | TGI [18]: > 100 µM | TGI [19]: > 100 µM | TGI [20]: > 100 µM

C=C/C(C)=C\CC1[C@](C)(O)CC[C@H]2C(C)(C)C(O)CC[C@]12C (stereo not given in full)
TGI [1]: > 100 µM | TGI [2]: > 100 µM | TGI [3]: > 100 µM | TGI [4]: > 100 µM | TGI [5]: > 100 µM | TGI [6]: > 100 µM | TGI [7]: > 100 µM | TGI [8]: > 100 µM | TGI [9]: > 100 µM | TGI [10]: > 100 µM | TGI [11]: > 100 µM | TGI [12]: > 100 µM | TGI [13]: > 100 µM | TGI [14]: > 100 µM | TGI [15]: > 100 µM | TGI [16]: > 100 µM | TGI [17]: > 100 µM | TGI [18]: > 100 µM | TGI [19]: > 100 µM | TGI [20]: > 100 µM

O[C@H]1[C@H](O)[C@@H](O)[C@@]2(O)CC[C@@H]1N2
TGI [1]: > 100 µM | TGI [2]: > 100 µM | TGI [3]: > 100 µM | TGI [4]: > 100 µM | TGI [5]: > 100 µM | TGI [6]: > 100 µM | TGI [7]: > 100 µM | TGI [8]: > 100 µM | TGI [9]: > 100 µM | TGI [10]: > 100 µM | TGI [11]: > 100 µM | TGI [12]: > 100 µM | TGI [13]: > 100 µM | TGI [14]: > 100 µM | TGI [15]: > 100 µM | TGI [16]: > 100 µM | TGI [17]: > 100 µM | TGI [18]: > 100 µM | TGI [19]: > 100 µM | TGI [20]: > 100 µM

CCN(CC)C1CCC(C2c3cc4c(cc3OC(N3CCOCC3)C2C)OCO4)CC1 (stereo not given)
TGI [1]: > 83.1 µM | TGI [2]: > 100 µM | TGI [3]: 57 µM | TGI [4]: 99.1 µM | TGI [5]: > 100 µM | TGI [6]: > 100 µM | TGI [7]: > 100 µM | TGI [8]: 72.5 µM | TGI [9]: 90.7 µM | TGI [10]: > 100 µM | TGI [11]: 52.7 µM | TGI [12]: > 100 µM | TGI [13]: > 100 µM | TGI [14]: > 100 µM | TGI [15]: 60.7 µM | TGI [16]: > 100 µM | TGI [17]: > 84.1 µM | TGI [18]: > 100 µM | TGI [19]: > 100 µM | TGI [20]: > 100 µM
